From patent US20060234919A1, “Use” (priority 2001, published 2006)

Assays:
[1] = system: collagenase-induced cutaneous inflammation; assay: collagenase-induced cutaneous plasma protein extravasation; format: in vivo, guinea-pig
Protocol: One hour after anaesthesia of guinea-pigs with urethane (1.6 g/kg, i.p.), Evans blue (20 mg/kg) was injected into a jugular vein. Collagenase ([…]) or its solvent ([…] 154 mmol/l NaCl solution) was injected s. c. into the dorsal skin. All doses of collagenase as well as the solvent were injected on both sides of the spine in randomised order. The ensuing plasma protein extravasation was determined at 60 min by extraction of Evans blue (see above) from the dorsal skin.
Oxytocin was dissolved and diluted in DMSO for all experiments involving s. c. injection in volumes of 1.0 ml/kg. All pretreatments were given 1 h prior to the induction of the respective model of inflammation. All animal experiments approved of by Karolinska institutets animal committe.
Oxytocin was a gift from Poly Peptides Copenhagen, Denmark and was dissolved in phosphate-buffered saline (composition in mmol/l: NaCl 136.9, KCl 2.7, KH2PO4 1.5, Na2HPO4 7.7). Cyclophosphamide monohydrate and collagenase from Clostridium histolyticum (type II, clostridiopeptidase A, EC 3.4.24.3) were obtained from Sigma and were dissolved in 154 mmol/l NaCl.

[2] = system: magnesium deficiency-induced dermatosis; assay: atopic dermatitis-like symptoms in hypomagnesaemic hairless rats; format: in vivo, rat
Protocol: Male hairless rats (Ico:OFA hr/hr) were obtained from Iffa Credo (Lyon, France) immediately after weaning and housed under conventional standardised conditions in polycarbonate cages with wood chip bedding in a room with 12:12 h light/dark cycle, 24±1° C. The rats were fed with a standard maintenance diet low in magnesium (Altromin, Lage, Germany, C10350; 0.012% Mg^2+/kg dry matter) and demonised water was supplied ad libitum. This diet rendered the animals hypomagnesaemic. Magnesium (mean±SD, mmol/l) in serum fell to 0.58±0.23 on day 4, 0.36±0.18 on day 10, and to the lowest value (0.24±0.11) on day 15 on the diet. The lowest concentration was maintained up to the termination of the experiments. Under these conditions, the onset of clinical signs was after 6-8 days on the diet. The first signs were pronounced reddening and swelling of both ear lobes in all animals. […] Simultaneously with the onset of erythema, the rats began to scratch intensively and bite themselves, causing erosions and excoriations. Head, trunk, paws and tail were uniformly and intensely reddened within 2 days after the onset of signs. This stage was followed by the development of small papules and irregularly shaped plaques 1-2 cm in diameter on the trunk. The skin lesions and the signs of pruritus were most pronounced after 10-11 days on the diet, and were then constant for approximately 4 days. This acute stage was then followed by a decrease in general erythema and, subsequently, by the remission of papules and plaques within approximately 5 days. However, complete clearance was not observed.
Drug, formulations and treatment regimens: For topical administration, the oxytocin was dissolved in ethanol/propylene glycol (1 mg/ml).
The treatment was performed either unilaterally with the active drug on the right ear and with the vehicle contralaterally or bilaterally on both ears with oxytocin and vehicle, respectively. Therapeutic treatment was started immediately after clinical signs had fully developed and was given twice daily for 3 consecutive days. Prophylactic application was started on day 3 on the diet (i.e. 3-5 days before the expected onset of signs) and was given once daily for 7 days until day 9. Active drug or vehicle was applied in volumes of 20 μl to both sides of the ears.
For assessment of the therapeutic efficacy of oxytocin the animals were examined clinically once daily during the treatment period and for a further 7 days (topical treatment). Prophylactic activity was determined by daily examinations performed during the treatment period and a further 9 days. A score index (scale 0-3) for ear lesions was applied: 0, no change; 1, slight edematous, erythematous swelling; 2, moderate edematous, erythematous swelling; 3, pronounced edematous, erythematous swelling. In all experiments, the skin lesions were evaluated clinically by a single investigator unaware of the treatment allocation.

[3] = system: TNF-alpha; assay: TNF-alpha in BALF in SDX-induced eosinophilic airway inflammation; format: in vivo, rat; conditions: 1 mg/ml s.c.
Protocol: 12 male Wistar rats aged 11-12 weeks, with an average weight of 323 g, were used in the study. The animals (n=3 in each group) were evaluated at 3 h and 24 h after induced inflammation. These were compared with control animals (n=3 in each group) examined at the same time points. An eosinophilic airway inflammation was induced by intratracheal instillation of SDX particles (G-200 Superfine, Pharmacia & Upjohn, Uppsala, Sweden) dissolved in phosphate-buffered saline (PBS) as previously described (Andersson S E, Zackrisson C, Hemsen A, Lundberg J M. Regulation of lung endothelin content by the glucocorticosteroid budesonide. Biochem Biophys Res Commun 1992, 188:1116-1121) and compared with that in control animals receiving a similar volume of PBS intratracheally. BAL was performed by instillation of 3+2+2 ml of PBS in the right stem bronchus distal to the upper lobe, and the procedure was repeated in the main bronchus on the left side. Immediately after the BAL procedure, the lungs were removed and frozen in liquid nitrogen for tissue analyses 3 h and 24 h after SDX instillation (n=3 animals at each time point) and 3 h and 24 after intratracheal instillation of saline into control animals (n=3). Oxytocin 1 mg/ml was given s.c.
TNF-alpha was measured with a rat-specific sandwich enzyme-linked immunosorbent assay (ELISA; Factor-Test-X, Genzyme, Cambridge, Mass.). […]

[4] = system: xylene-induced cystitis; assay: xylene-induced cystitis, plasma protein extravasation (Evans blue); format: in vivo, rat; conditions: 1 mg/ml s.c. 1 h before xylene; 2 h after instillation; xylene alone 13.21±3.68; p<0.01
Protocol: Rats were anaesthetised with pentobarbital sodium and phenobarbitone sodium as above. Following i. v. injection of Evans blue (20 mg/kg, i. v.), the urinary bladder was cannulated via the urethra using a polyethylene tubing and […] xylene (30% v/v in silicone oil) were instilled within 10 s. The cannula was then left in place for a further period of 10 s. Two hours later, the animals were injected with an overdose of pentobarbitone sodium and the bladder was removed. Evans blue was extracted by incubation of the tissue in 4 ml formamide for 24 h at 55° C. for subsequent photometric measurements at 620 nm.
Plasma protein extravasation in the urinary bladder of anaesthetised rats was made 2 h after intravesical instillation of 30% (v/v) xylene […]. Control animals were treated with appropriate volumes of the vehicles ([…] silicone oil or 4 ml/kg 154 mmol/l NaCl solution, respectively). Oxytocin (1 mg/ml) was injected s. c. 1 h before administration of xylene or cyclophosphamide while control rats received DMSO (0.5 ml/kg, s. c.). Plasma protein extravasation is given as total tissue content of the protein marker, Evans blue, given i. v. (20 mg/kg) 5 min prior to the induction of cystitis.
Oxytocin was dissolved and diluted in DMSO for all experiments involving s. c. injection in volumes of 1.0 ml/kg. […]

Oxytocin
effect on collagenase-induced plasma protein extravasation ([1]; 1 ug/ml oxytocin, 10 and 30 mg collagenase): no effect
cutaneous plasma protein extravasation, Evans blue accumulation ([1]; s.c. pre-treatment 1 mg/ml, 10 mg collagenase, without oxytocin 3.5±1.0): 2.2 ± 0.9 mg
effect on collagenase-induced plasma protein extravasation ([1]; s.c. pre-treatment 1 mg/ml, higher doses of the enzyme): attenuated the effect
sum of daily scores (ear lesions, scale 0-3) from day 3 to 10 ([2]; prophylactic topical, once daily day 3 to 9, vehicle-treated ears 9.2±0.7): 2.4±1.1
time after the last dose until which signs remained suppressed ([2]; therapeutic, bilateral application, signs reappeared 4 or 5 days after the last dose): 3 days
local erythematous swelling of the ears ([2]; therapeutic, bilateral application, within 1 day after the first dose): significantly inhibited
local erythematous swelling of the ear ([2]; therapeutic, epicutaneously on one ear, 1 mg/ml, within 1 day after the start of treatment): significantly reduced local erythematous swelling
systemic effect (distant erythematous lesions on the trunk and pruritus) ([2]; topical dose applied on the ears): no systemic effect
TNF-alpha concentration in BALF ([3]; 3 h after SDX provocation): effectively inhibited the increase
TNF-alpha level relative to animals not receiving oxytocin ([3]; 24 h after SDX provocation): 32%
plasma protein extravasation, total Evans blue content of the urinary bladder [4]: 5.14 ± 2.58 mg
